Laboratory results reported in patent US9597323B2, “Aminoester derivatives” (CHIESI FARMACEUTICI S.p.A., priority 2015, dated 2017).
Where two headings read alike, the source gives them in different places.

Key:
Human M3 receptor = biological target: T1, Human M3 receptor (Homo sapiens, UniProt P20309); assay: M3 Receptor radioligand binding assay; settings: for Ki: calculated from IC50 by Cheng and Prusoff equation
T1 construct: purchased Perkin Elmer
Protocol: M3 Receptor Radioligand Binding Assay:
The assay is carried out in 96-well polypropylene plates in a volume of 250 μl. […] The final assay concentration of DMSO is 0.5% (v/v). The plates are sealed and incubated for 2 h at room temperature on an orbital shaker (slow speed). Membranes are harvested onto 96-well unifilter GF/C filter plates pre-treated with 0.5% polyethyleneimine (v/v), using a filter manifold, washed four times with 200 μl of assay buffer. The plates are dried before addition of 50 μl of microscint-0, sealed then read in a Trilux Microbeta scintillation counter. IC50 values are determined from competition curves using a non-linear curve fitting program. Ki values are calculated from IC50 values by the Cheng and Prusoff equation.

Human recombinant PDE4B2 = Human recombinant PDE4B2 (Homo sapiens, UniProt Q07343); assay: PDE4B2 HTRF assay; assay type: biochemical
Protocol: PDE4B2 activity is detected using the LANCE Ultra cAMP homogeneous time resolved fluorescence resonance energy transfer (TR-FRET) assay from Perkin Elmer. The assay is based on the competition between the europium (Eu) chelate-labeled cAMP tracer and sample cAMP for binding sites on cAMP-specific monoclonal antibodies (mAb) labelled with the ULight™ dye. The assay is carried out in 384-well low volume plates in a volume of 10 μl. Human recombinant PDE4B2 (80 pM) is incubated for 2 h with 3 nM cAMP in buffer containing 1×HBSS, 5 mM HEPES, 3 mM MgCl2, 0.1% BSA, pH 7.4 with or without test compounds. The enzymatic reactions are efficiently stopped by the addition of 500 μM IBMX present in the combined Stop/Detection buffer containing europium (Eu) chelate-labeled cAMP tracer and cAMP-specific monoclonal antibodies (mAb) labelled with the ULight™ dye. […] IC50 values are determined from competition curves using a non-linear curve fitting program.

[1] = system: Cch-evoked bronchoconstriction; assay: Bronchospasm, percentage of inhibition (Cch-induced bronchoconstriction in rats); assay type: in vivo, rat; settings: for inhibition at 16 h: 16 h after intratracheal administration of the sub-maximal inhibition dose; for sub-maximal inhibition Dose [inhibition at 1 h]: dose producing about 80% inhibition of the bronchospasm after 1 h, intratracheal
Protocol: Protocol of Bronchospasm-Percentage of Inhibition Animals Male CD Sprague Dawley rats (220-250 g) were purchased from Charles River Laboratories Italy (Calco, Lecco). Prior to use animals were acclimated for at least 5 days to the local vivarium conditions (room temperature: 20-24° C.; relative humidity: 40-70%), having free access to standard rat chow and softened tap water. All the procedures were performed in animal operating rooms according to ethical guidelines for the conduct of animal research (D. L.vo 116/92). […] Animals were anaesthetized with Urethane (1.2 g/kg, i.p.) and a laryngoscope was moved forward into the mouth to visualize the trachea and guide the insertion of the tip of a custom made small diameter cannula directly into the trachea and located 1-2 mm above the bifurcation. […] The target concentration was obtained by dilution of the DMSO stock in saline. Test compounds were instilled locally into the trachea in a volume of 125 μl. Experimental Procedure In order to assess the residual inhibitory activity of test compounds at 1 to 16 hours after their administration, rats were surgically prepared. In order to assess the Cch-induced bronchoconstriction in rats, the infusion of physiological solution was stopped and the bronchospastic agent injected into the jugular vein using the same cannula. Soon after washing the cannula with saline to ensure the complete administration of the bronchoconstrictor agent, the saline infusion was started again. Body temperature was kept constant at 37° C. by a heated blanket. The trachea was cannulated and the lungs were ventilated artificially with a small animal constant volume ventilator (rodent ventilator mod. 7025, Ugo Basile, Comerio, Varese, Italy) at a frequency of 80 strokes/min and at a tidal volume of 2.5 ml/kg. To avoid spontaneous breathing, the animals were injected intravenously (i.v.) with pancuronium bromide (2 mg/kg). Bronchoconstriction was induced by the i.v. injection of Cch 50 μg/kg. In control experiments, repeated injections of this dose produced reproducible short-lasting (1-2 min duration) bronchospasms. Bronchoconstriction, quantified as a reduction of tidal volume, was evaluated according to the method described by Konzett & Roessler in Konzett H. and Roessler R. (1940). Versuchanornungzu untersuchungen […]. Arch. Exp. Path. Pharmak.; 195:71-74, which is incorporated herein by reference in its entirety. Systemic blood pressure and changes in airway resistance were monitored with a digital pressure transducer connected to a bridge amplifier (PowerLab; Ugo Basile, Italy) and recorded using Chart 5 software (Ugo Basile, Italy). […] The effect of test compounds was expressed as % inhibition of Cch-evoked bronchoconstriction in time-matched, vehicle-treated, animals (controls).

COPD patients = settings: cited from earlier work
[2] = patients with severe disease, frequent exacerbations and mucus hypersecretion

Human recombinant PDE4B2, sequence (Q07343 1-564 isoform Q07343-2): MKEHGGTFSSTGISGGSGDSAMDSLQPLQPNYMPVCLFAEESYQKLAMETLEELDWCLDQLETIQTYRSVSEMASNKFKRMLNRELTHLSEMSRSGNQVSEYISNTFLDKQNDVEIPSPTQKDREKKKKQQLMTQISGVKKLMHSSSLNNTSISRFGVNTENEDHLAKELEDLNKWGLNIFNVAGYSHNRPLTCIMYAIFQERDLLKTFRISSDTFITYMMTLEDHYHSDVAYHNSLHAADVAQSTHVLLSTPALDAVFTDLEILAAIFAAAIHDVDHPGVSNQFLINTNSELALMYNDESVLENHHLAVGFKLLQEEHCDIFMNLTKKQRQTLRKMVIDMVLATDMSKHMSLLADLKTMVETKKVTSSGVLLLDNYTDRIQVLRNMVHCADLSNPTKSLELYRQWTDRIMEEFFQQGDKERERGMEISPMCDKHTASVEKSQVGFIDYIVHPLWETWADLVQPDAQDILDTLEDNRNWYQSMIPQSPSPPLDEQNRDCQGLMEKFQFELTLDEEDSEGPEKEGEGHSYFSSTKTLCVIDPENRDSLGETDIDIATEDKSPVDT
T1 sequence (P20309 whole entry): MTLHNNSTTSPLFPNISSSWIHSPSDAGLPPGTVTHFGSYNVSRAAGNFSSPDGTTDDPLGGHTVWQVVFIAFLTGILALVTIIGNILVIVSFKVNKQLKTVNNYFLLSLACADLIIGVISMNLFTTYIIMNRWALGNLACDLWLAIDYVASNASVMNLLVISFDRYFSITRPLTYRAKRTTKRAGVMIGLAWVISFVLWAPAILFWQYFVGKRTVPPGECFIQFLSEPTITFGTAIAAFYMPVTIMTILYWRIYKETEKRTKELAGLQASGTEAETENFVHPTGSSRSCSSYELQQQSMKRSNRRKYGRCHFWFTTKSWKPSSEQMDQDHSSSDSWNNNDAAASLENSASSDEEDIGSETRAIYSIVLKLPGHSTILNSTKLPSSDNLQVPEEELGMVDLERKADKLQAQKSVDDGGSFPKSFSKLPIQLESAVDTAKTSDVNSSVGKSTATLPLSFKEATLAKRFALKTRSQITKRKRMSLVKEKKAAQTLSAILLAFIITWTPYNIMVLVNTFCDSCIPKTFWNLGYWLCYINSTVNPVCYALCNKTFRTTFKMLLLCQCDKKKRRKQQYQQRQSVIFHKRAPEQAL

COc1ccc([C@H](Cc2c(Cl)c[n+]([O-])cc2Cl)OC(=O)c2ccc(CNC(C(=O)OCC3CCN(C)CC3)c3ccccc3)cc2)cc1OC (single isomer, unassigned) [Example 7]
Ki (Human M3 receptor): 0.45 nM
IC50 (Human M3 receptor; read-out: M3 IC50): 0.9 nM
IC50 (Human M3 receptor; read-out: M3 IC50 activity): < 1 nM
IC50 (Human recombinant PDE4B2): 1 to 10 nM
inhibition at 16 h [1]: >90%
sub-maximal inhibition Dose [inhibition at 1 h] [1]: 30 nmol/kg

COc1ccc([C@H](Cc2c(Cl)c[n+]([O-])cc2Cl)OC(=O)c2cccc(CNC(C(=O)OCC3CCN(C)CC3)c3ccccc3)c2)cc1OC (stereo partly drawn) [Example 5, [(1S)-2-(3,5-dichloro-1-oxido-pyridin-1-ium-4-yl)-1-(3,4-dimethoxyphenyl)ethyl] 3-[[[2-[(1-methyl-4-piperidyl)-methoxy]-2-oxo-1-phenyl-ethyl]amino]methyl]benzoate]
IC50 (Human M3 receptor; read-out: M3 IC50 activity): 1 to 10 nM
IC50 (Human recombinant PDE4B2): 1 to 10 nM

COc1ccc([C@H](Cc2c(Cl)c[n+]([O-])cc2Cl)OC(=O)c2cccc(CNC(C(=O)OCC3CCN(C)CC3)c3ccccc3)c2)cc1OC (mixture of isomers) [Example 1, [(1S)-2-(3,5-dichloro-1-oxido-pyridin-1-ium-4-yl)-1-(3,4-dimethoxyphenyl)ethyl] 3-[[[2-[(1-methyl-4-piperidyl)methoxy]-2-oxo-1-phenyl-ethyl]amino]methyl]benzoate]
IC50 (Human M3 receptor; read-out: M3 IC50 activity): 1 to 10 nM
IC50 (Human recombinant PDE4B2): < 1 nM

COc1ccc([C@H](Cc2c(Cl)c[n+]([O-])cc2Cl)OC(=O)c2ccc(CNC(C(=O)OCC3CCN(C)CC3)c3ccccc3)cc2)cc1OC (single isomer, unassigned) [Example 2]
IC50 (Human M3 receptor; read-out: M3 IC50 activity): 1 to 10 nM
IC50 (Human recombinant PDE4B2): 1 to 10 nM

COc1ccc([C@H](Cc2c(Cl)c[n+]([O-])cc2Cl)OC(=O)c2ccc(CNC(C(=O)OC3CCN(C)CC3)c3ccccc3)cc2)cc1OC (single isomer, unassigned) [Example 7C, reference compound]
Ki (Human M3 receptor): 0.09 nM
IC50 (Human M3 receptor; read-out: M3 IC50): 0.17 nM
inhibition at 16 h [1]: <10%
sub-maximal inhibition Dose [inhibition at 1 h] [1]: 3 nmol/kg

COc1ccc([C@H](Cc2c(Cl)c[n+]([O-])cc2Cl)OC(=O)c2ccc(CNC(C(=O)OCC3CCN(C)CC3)c3cccc(O)c3)cc2)cc1OC (stereo partly drawn) [Example 11, [(1S)-2-(3,5-dichloro-1-oxido-pyridin-1-ium-4-yl)-1-(3,4-dimethoxyphenyl)ethyl] 4-[[[1-(3-hydroxyphenyl)-2-[(1-methyl-4-piperidyl)-methoxy]-2-oxo-ethyl]amino]methyl]benzoate]
IC50 (Human M3 receptor; read-out: M3 IC50 activity): 1 to 10 nM
IC50 (Human recombinant PDE4B2): 1 to 10 nM

O=C(Nc1c(Cl)cncc1Cl)c1ccc(OC(F)F)c(OCC2CC2)c1 [roflumilast]
reduction of numbers of neutrophils in sputum (COPD patients; COPD patients, oral, over four weeks): 36%
improvement of FEV 1 (COPD patients; [2]): approximately 50 mL
reduction of exacerbation (COPD patients; [2]): about 15%
